# Measured values reported in ChEMBL document CHEMBL6182944, “Substrate Specificity of the Organic Cation Transporters MATE1 and MATE2K and Functional Overlap with OCT1 and OCT2” (J Med Chem, 2025).
# T1: Multidrug and toxin extrusion protein 1 (Homo sapiens, UniProt Q96FL8)
# T1 sequence (Q96FL8 whole entry): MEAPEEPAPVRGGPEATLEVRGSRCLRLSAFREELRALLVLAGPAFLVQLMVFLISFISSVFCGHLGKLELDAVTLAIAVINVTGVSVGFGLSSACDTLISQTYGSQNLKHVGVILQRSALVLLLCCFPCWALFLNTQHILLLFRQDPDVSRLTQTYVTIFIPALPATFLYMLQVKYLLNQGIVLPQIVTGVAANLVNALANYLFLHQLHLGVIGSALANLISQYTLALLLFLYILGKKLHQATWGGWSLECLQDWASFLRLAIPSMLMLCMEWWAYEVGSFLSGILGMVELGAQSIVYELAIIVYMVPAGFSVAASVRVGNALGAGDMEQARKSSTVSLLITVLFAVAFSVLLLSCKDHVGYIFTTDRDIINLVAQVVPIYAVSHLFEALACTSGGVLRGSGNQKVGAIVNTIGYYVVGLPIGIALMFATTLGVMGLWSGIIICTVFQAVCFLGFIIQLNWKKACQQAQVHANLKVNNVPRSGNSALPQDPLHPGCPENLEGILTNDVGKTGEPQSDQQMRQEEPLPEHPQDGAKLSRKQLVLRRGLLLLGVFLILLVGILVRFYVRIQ
# T2: Multidrug and toxin extrusion protein 2 (Homo sapiens, UniProt Q86VL8)
# T2 sequence (Q86VL8 whole entry): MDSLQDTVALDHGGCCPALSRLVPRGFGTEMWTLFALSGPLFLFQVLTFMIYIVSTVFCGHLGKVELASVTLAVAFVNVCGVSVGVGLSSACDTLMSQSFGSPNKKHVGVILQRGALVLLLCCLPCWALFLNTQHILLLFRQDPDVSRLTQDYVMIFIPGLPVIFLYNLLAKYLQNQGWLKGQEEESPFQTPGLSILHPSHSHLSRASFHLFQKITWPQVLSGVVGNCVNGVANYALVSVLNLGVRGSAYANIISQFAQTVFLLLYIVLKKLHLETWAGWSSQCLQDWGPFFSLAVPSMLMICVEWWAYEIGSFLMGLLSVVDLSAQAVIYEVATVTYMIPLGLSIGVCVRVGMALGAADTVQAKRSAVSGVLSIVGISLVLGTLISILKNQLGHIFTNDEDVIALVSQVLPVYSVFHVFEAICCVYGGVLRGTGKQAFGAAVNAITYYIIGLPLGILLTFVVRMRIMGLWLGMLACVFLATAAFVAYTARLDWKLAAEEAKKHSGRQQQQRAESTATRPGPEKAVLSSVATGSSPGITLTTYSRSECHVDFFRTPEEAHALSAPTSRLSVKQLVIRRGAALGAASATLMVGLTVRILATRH
# T3: MATE1 (Homo sapiens, UniProt Q96FL8)
# T3 sequence (Q96FL8 whole entry): T1 sequence (Q96FL8 whole entry)
# T4: MATE2-K (Homo sapiens, UniProt Q86VL8)
# T4 sequence (Q86VL8 whole entry): T2 sequence (Q86VL8 whole entry)
# B1: Multidrug and toxin extrusion protein 2 (Homo sapiens) (protein)
# chain: T2 sequence (Q86VL8 whole entry)
# Columns and labels:
# [1] = target: T1, Multidrug and toxin extrusion protein 1; experiment: Substrate activity at MATE1 (unknown origin) expressed in HEK293 cells assessed as increase in uptake by HPLC-MS/MS analysis; type: cell-based
# [2] = target: T2, Multidrug and toxin extrusion protein 2; experiment: Substrate activity at MATE2-K (unknown origin) expressed in HEK293 cells assessed as increase in uptake by HPLC-MS/MS analysis; type: cell-based
# [3] = target: T1, Multidrug and toxin extrusion protein 1; experiment: Substrate activity at MATE1 (unknown origin) expressed in HEK293 cells assessed as Vmax (maximum transport velocity) by HPLC-MS/MS analysis; type: cell-based
# [4] = target: T1, Multidrug and toxin extrusion protein 1; experiment: Substrate activity at MATE1 (unknown origin) expressed in HEK293 cells assessed as intrinsic clearance by measuring ratio of Vmax (maximum transport velocity) over Km measured per mg of protein by HPLC-MS/MS analysis; type: cell-based
# [5] = target: T2, Multidrug and toxin extrusion protein 2; experiment: Substrate activity at MATE2-K (unknown origin) expressed in HEK293 cells assessed as intrinsic clearance by measuring ratio of Vmax (maximum transport velocity) over Km measured per mg of protein by HPLC-MS/MS analysis; type: cell-based
# MATE1 = target: T3, MATE1; experiment: in vitro
# MATE2-K [6] = target: T4, MATE2-K; experiment: in vitro
# [7] = target: T2, Multidrug and toxin extrusion protein 2; experiment: Substrate activity at MATE2-K (unknown origin) expressed in HEK293 cells assessed as Vmax (maximum transport velocity) by HPLC-MS/MS analysis; type: cell-based
# MATE2-K [8] = target: T4, MATE2-K; experiment: (§1) Substrate activity at MATE2-K (unknown origin) expressed in HEK293 cells assessed as substrate concentration to achieve half of Vmax (maximum transport velocity) measured per mg of protein by HPLC-MS/MS analysis; type: cell-based; conditions: HEK293 cells expressing MATE2-K
# not read [9] = substrate: CC(C)NC[C@@H](O)COc1ccc(CC(N)=O)cc1; experiment: not read
# not read [10] = substrate: CN(C)CCc1c[nH]c2ccc(C[C@H]3COC(=O)N3)cc12; experiment: not read
# not read [11] = substrate: CNC[C@H](O)c1ccc(O)c(O)c1; experiment: not read
# not read [12] = substrate: Cc1ncc(CO)c(CO)c1O; experiment: not read
# not read [13] = substrate: Cc1ncc(C[n+]2csc(CCO)c2C)c(N)n1; experiment: not read
# not read [14] = substrate: NCCc1ccc(O)c(O)c1; experiment: not read
# not read [15] = substrate: Nc1nc(=O)n([C@@H]2CS[C@H](CO)O2)cc1F; experiment: not read
# [16] = substrate: CC(CCc1ccc(O)cc1)NCCc1ccc(O)c(O)c1; experiment: as §1; type: cell-based, Homo sapiens
# [17] = substrate: CCN1CCCC1CNC(=O)c1cc(S(=O)(=O)CC)c(N)cc1OC; experiment: as §1; type: cell-based, Homo sapiens
# [18] = substrate: CN(C)C(=O)Oc1cccc([N+](C)(C)C)c1; experiment: as §1; type: cell-based, Homo sapiens
# [19] = substrate: COCCn1c2c([n+](Cc3cnccn3)c1C)C(=O)c1ccccc1C2=O; experiment: as §1; type: cell-based, Homo sapiens
# [20] = substrate: C[C@H]1N=C(N(C)C)N=C(N)N1; experiment: as §1; type: cell-based, Homo sapiens
# [21] = substrate: C[N+]1(CC2CC2)CC[C@]23c4c5ccc(O)c4O[C@H]2C(=O)CC[C@@]3(O)[C@H]1C5; experiment: as §1; type: cell-based, Homo sapiens
# [22] = substrate: c1c2c(cc3c1OCO3)-c1cc3ccc4c(c3c[n+]1CC2)OCO4; experiment: as §1; type: cell-based, Homo sapiens
molecule,measurement,setting,value
Cc1ncc(C[n+]2csc(CCO)c2C)c(N)n1 [THIAMINE ION],Activity,[1],Dose-dependent-effect
same,Activity,[2],Dose-dependent-effect
same,Vmax,[3],599 pmol/min
same,CL,[4],34.9 µL/min
same,CL,[5],6.32 µL/min
same,"uptake ratio at 1 min, 2.5 µM",MATE1; hek293,> 2
same,"uptake ratio at 1 min, 2.5 µM",MATE2-K [6]; hek293,> 2
COCCn1c2c([n+](Cc3cnccn3)c1C)C(=O)c1ccccc1C2=O [SEPANTRONIUM],Activity,[1],Dose-dependent-effect
same,Activity,[2],Dose-dependent-effect
same,Vmax,[3],304 pmol/min
same,CL,[4],3.76 µL/min
same,CL,[5],9.19 µL/min
same,"uptake ratio at 1 min, 2.5 µM",MATE1; HEK293 cells expressing MATE1,> 2
same,"uptake ratio at 1 min, 2.5 µM",MATE2-K [6]; HEK293 cells expressing MATE2-K,> 2
CN(C)CCc1c[nH]c2ccc(C[C@@H]3COC(=O)N3)cc12,Vmax,[3],2624 pmol/min
same,CL,[4],94.5 µL/min
same,Vmax,[7],992 pmol/min
same,Km,MATE2-K [8],18.3 µM
same,CL,[5],54.2 µL/min
CN[C@@H]1CCc2[nH]c3ccc(C(N)=O)cc3c2C1 [FROVATRIPTAN],Activity,[1],Dose-dependent-effect
same,Activity,[2],Dose-dependent-effect
same,Vmax,[3],4568 pmol/min
same,CL,[4],64.9 µL/min
same,Vmax,[7],869 pmol/min
same,CL,[5],77.8 µL/min
same,"uptake ratio at 1 min, 2.5 µM",MATE1; hek293,> 2
same,"uptake ratio at 1 min, 2.5 µM",MATE2-K [6]; hek293,> 2
B1,Km,not read [9],181 µM
same,Vmax,not read [9],0.00296 µmol/min
same,Km,not read [10],94.5 µM
same,Vmax,not read [10],0.00166 µmol/min
same,Km,not read [11],1510 µM
same,Vmax,not read [11],0.00297 µmol/min
same,Km,not read [12],495 µM
same,Vmax,not read [12],0.000593 µmol/min
same,Vmax,not read [13],0.000109 µmol/min
same,Km,not read [14],961 µM
same,Vmax,not read [14],0.00122 µmol/min
same,Km,not read [15],873 µM
same,Vmax,not read [15],0.00263 µmol/min
same,Km,[16],86.4 µM
same,Vmax,[16],0.000493 µmol/min
same,Km,[17],39.9 µM
same,Vmax,[17],0.00071 µmol/min
same,Km,[18],385 µM
same,Vmax,[18],0.00314 µmol/min
same,Km,[19],8.54 µM
same,Vmax,[19],7.85e-05 µmol/min
same,Km,[20],81.6 µM
same,Vmax,[20],0.00281 µmol/min
same,Km,[21],86.8 µM
same,Vmax,[21],4.16e-05 µmol/min
same,Km,[22],1.88 µM
same,Vmax,[22],0.000246 µmol/min
